According to US20140348861A1, “SYNTHETIC PEPTIDES AND RANDOM COPOLYMERS FOR THE TREATMENT OF AUTOIMMUNE DISORDERS” (NATIONAL INSTITUTE OF IMMUNOLOGY, priority 2011, published 2014):
Non-standard residues stand in square brackets, D forms with d. Primed or numbered codes have the meaning given here. No end group written: not given here. β3hY = N[C@H](CC(=O)O)Cc1ccc(O)cc1; Kβ″ = beta-amino acid residue (K); β3hK = NCCCC[C@H](N)CC(=O)O; β3hA = C[C@H](N)CC(=O)O

Test system: SJL/J mice exhibiting MBP (85-109) induced relapsing remitting form of EAE
Assay: Therapeutic activity in MBP (85-109) induced relapsing remitting EAE, treatment from day 11
Type: in vivo
Settings: SJL/J mice, RR EAE; for Therapeutic activity in comparison to GA (Therapeutic activity (Analogs) − Therapeutic activity GA) / Therapeutic activity in comparison to J5 (Therapeutic activity (Analogs) − Therapeutic activity (J5)): 0.1 mg daily for two weeks; for Therapeutic activity = % reduction in cumulative clinical disability score: synthetic peptides, 0.1 mg daily for two weeks from day 11 post-immunization
Protocol: SJL/J and C57BL6/J mice procured from Jackson's laboratory (Bar Harbor, Me.) were maintained under standard housing conditions in the central animal facility at NII as per institutional ethical committee guidelines. 8-10 week old female SJL/J mice were used throughout the study.
To induce RR EAE or chronic progressive EAE, SJL/J or C57BL6/J mice were immunized subcutaneously with 0.2 mg of MBP (85-109) or 0.1 mg MOG (35-55) emulsified in CFA and 200 ng of pertussis toxin was injected intraperitoneally on day 0 and day 2 so as to permeablize the blood brain barrier. All the animals in various experimental groups were scored daily for clinical disability on a scale of 0-6 where 0=no neurological symptoms, 1=limp tail, 2=weakness of hind limbs or ataxia, 3=incomplete paralysis of hind limbs, 4=complete paralysis of hind limbs, 5=complete paralysis of all four limbs, 6=dead. Diseased animals were provided easy access to food and water.
GA, J91, J92, S101, S102, S103 for two weeks and scored for clinical disability.

Substance	Therapeutic activity in comparison to GA (Therapeutic activity (Analogs) − Therapeutic activity GA) [%]	Therapeutic activity in comparison to J5 (Therapeutic activity (Analogs) − Therapeutic activity (J5)) [%]	Therapeutic activity = % reduction in cumulative clinical disability score [%]
KVEβAβYβKβ [Analog S69]	−8.877	−12.8342	22.46
KVEβAβYβKβAβAβAβAβ [Analog S62]	5.455	1.497	36.79
EβKβPKβVβEβAβYβKβAβAβAβAβPAβ [Analog S53]	0.2139	−3.743	31.5508
KVEAYβ^3Kβ^3Aβ^3Aβ^3Aβ^3Aβ^3 [Analog S22]	17.43	13.48	48.77
EKPKVEAYKAAAβ^3Aβ^3Pβ^3Aβ^3 [Analog S4]	4.492	0.5348	35.83
KVEAYKAAβAβAβ [Analog S57]	8.021	4.064	39.36
Vβ^3EAYβ^3Kβ^3 [Analog S40]	13.9	9.947	45.24
VEAβYβKβ [Analog S75]	−5.5615	−9.519	25.7754
KβVβEβAβYβKβAβAβAβAβ [Analog S64]	−7.38	−11.3369	23.96
EKPKVEAβYβKβAβAβAβAβPAβ [Analog S48]	22.89	18.93	54.2246
EKPKVβEβAβYβKβAβAβAβAβPAβ [Analog S50]	−1.925	−5.882	29.41
KVEAYKAAAAβ^3 (KVEAYKAAA[β3hA]) [Analog S17]	−2.032	−5.989	29.3
Kβ^3Vβ^3Eβ^3AβYβ^3Kβ^3AβAβAβAβ^3 [Analog S81]	31.12	27.17	62.46
KVEAYKβ [Analog S66]	−9.412	−13.369	21.93
KVEAYβ^3Kβ^3 (KVEA[β3hY][β3hK]) [Analog S29]	−1.07	−5.027	30.27
Kβ^3Vβ^3EAYβ^3Kβ^3Aβ^3Aβ^3Aβ^3Aβ^3 [Analog S26]	27.91	23.96	59.25
VEAYKβ (VEAY[Kβ″]) [Analog S73]	−10.0535	−14.0107	21.28
KVEAβYβKβAβAβAβAβ [Analog S61]	8.6631	4.706	40
KVEβ^3Aβ^3Yβ^3Kβ^3 [Analog S31]	−1.818	−5.7754	29.52
KVEAYKAAAAβ [Analog S55]	−2.781	−6.738	28.56
EβKβPKβ^3Vβ^3Eβ^3AβYβ^3Kβ^3AβAβAβAβ^3PAβ [Analog S79]	28.77	24.81	60.11
EKPKVEAYKAAAAβ^3Pβ^3Aβ^3 [Analog S3]	5.027	1.07	36.36
EKβPKβVβEβAβYβKβAβAβAβAβPAβ [Analog S52]	−1.604	−5.5615	29.73
EKPKVEAYKAAAβAβPAβ [Analog S43]	9.947	5.989	41.28
EKPKVEAYKAAAAPAβ [Analog S41]	2.032	−1.925	33.37
Kβ^3Vβ^3EAYβ^3Kβ^3 [Analog S34]	25.03	21.07	56.36
EKPKVEβAβYβKβAβAβAβAβPAβ [Analog S49]	18.93	14.97	50.27
EKPKVEAYKAAβAβAβPAβ [Analog S44]	15.94	11.98	47.27
EKPKVEAYKAAβ^3Aβ^3Aβ^3Pβ^3Aβ^3 [Analog S5]	11.02	7.059	42.35
